Measured values from patent publication US8980909B2, “HDAC inhibiting derivatives of camptothecin” (Crystal Biopharmaceutical LLC, priority 2011, dated 2015).

Assays:
U251 = assay: In vitro anti-proliferation assay (ATPlite), U251; type: cell-based; settings: for IC50: Homo sapiens, U-251, CNS Cancer, U251, 72 hours
Procedure: (§1) Cell antiproliferation was assayed by PerkinElmer ATPlite™ Luminescence Assay System. The cancer cell lines were plated at 10 k cells per well in Costar 96-well plates with different concentration of compounds for 72 hours with […]. After that, one lyophilized substrate solution vial was reconstituted by adding 5 mL of substrate buffer solution and was agitated gently until the solution is homogeneous. 50 μL of mammalian cell lysis solution was added to 100 μL of cell suspension per well of a microplate and the plate was shaken for five minutes in an orbital shaker at 700 rpm. This procedure will lyses the cells and stabilizes the ATP. Next, 50 μL substrate solution was added to the wells and microplate was shaken for five minutes in an orbital shaker at 700 rpm. Finally, the luminescence was measured by a PerkinElmer TopCount® Microplate Scintillation Counter. Such assays, carried out with a range of doses of test compounds, allow the determination of the cellular anti-antiproliferative IC50 of the compounds of the present invention.
(§2) The cellular antiproliferative assay were conducted side-by-side for Irinotecan (a FDA approved semisynthetic Camptothecin), and CY-700 (the first-in-class dual-functional semisynthetic Camptothecin/HDAC inhibitor), in 53 different cancer cell lines of breast cancer, renal cancer, non-small cell lung cancer, colon cancer, leukemia, multiple myeloma, ovarian cancer, prostate cancer, melanoma, and CNS cancer.

SK-MEL-5 = assay: In vitro anti-proliferation assay (ATPlite), SK-MEL-5; type: cell-based; settings: for IC50: Homo sapiens, Melanoma, SK-MEL-5, 72 hours
Procedure: as §1, §2

SNB-75 = assay: In vitro anti-proliferation assay (ATPlite), SNB-75; type: cell-based; settings: for IC50: Homo sapiens, CNS Cancer, SNB-75, 72 hours
Procedure: as §1, §2

T-47D = assay: In vitro anti-proliferation assay (ATPlite), T-47D; type: cell-based; settings: for IC50: Homo sapiens, T47D, Breast Cancer, T-47D, 72 hours
Procedure: as §1, §2

MCF7 = assay: In vitro anti-proliferation assay (ATPlite), MCF7; type: cell-based; settings: for IC50: Homo sapiens, Breast Cancer, MCF7, 72 hours
Procedure: as §1, §2

NCI-H226 = assay: In vitro anti-proliferation assay (ATPlite), NCI-H226; type: cell-based; settings: for IC50: Homo sapiens, NSCLC, NCI-H226, 72 hours
Procedure: as §1, §2

[1] = tested on: 53 different cancer cell lines; assay: In vitro anti-proliferation assay (ATPlite), panel of 53 cancer cell lines; type: cell-based; settings: among 53 cancer cell lines, side-by-side with Irinotecan
Procedure: as §1, with “invention. […]” for “invention.”

BT-549 = assay: In vitro anti-proliferation assay (ATPlite), BT-549; type: cell-based; settings: for IC50: Homo sapiens, Breast Cancer, BT-549, 72 hours
Procedure: as §1, §2

RXF 393 = assay: In vitro anti-proliferation assay (ATPlite), RXF 393; type: cell-based; settings: for IC50: Homo sapiens, Renal Cancer, RXF 393, 72 hours
Procedure: as §1, §2

SNB-19 = assay: In vitro anti-proliferation assay (ATPlite), SNB-19; type: cell-based; settings: for IC50: Homo sapiens, CNS Cancer, SNB-19, 72 hours
Procedure: as §1, §2

LOX IMVI = assay: In vitro anti-proliferation assay (ATPlite), LOX IMVI; type: cell-based; settings: for IC50: Homo sapiens, Melanoma, LOX IMVI, 72 hours
Procedure: as §1, §2

HDAC-1 = HDAC-1 (Homo sapiens, UniProt Q13547); assay: Inhibition of histone deacetylase enzymatic activity (Fluor-de-Lys), HDAC-1; type: biochemical; settings: HDAC subtype HDAC-1
Procedure: The following assay protocol was used to assay the compounds of the invention against the HDAC enzymes (HDAC-1, 2, 3, 4, 5, 6, 7, 8, 9, 10, and 11.). […] The enzyme stock solution was 4 μg/mL in buffer. The compounds were pre-incubated (2 μl in DMSO diluted to […] in buffer for transfer to assay plate) with enzyme (20 μl of 4 μg/ml) for 10 minutes at room temperature (35 μl pre-incubation volume). The mixture was pre-incubated for 5 minutes at room temperature. The reaction was started by bringing the temperature to 37° C. and adding 15 μl substrate. Total reaction volume was 50 μl. […] Such assays, carried out with a range of doses of test compounds, allowed the determination of an approximate IC50 value.

CCRF-CEM = assay: In vitro anti-proliferation assay (ATPlite), CCRF-CEM; type: cell-based; settings: for IC50: Homo sapiens, Leukemia, CCRF-CEM, 72 hours
Procedure: as §1, §2

SF-268 = assay: In vitro anti-proliferation assay (ATPlite), SF-268; type: cell-based; settings: for IC50: Homo sapiens, CNS Cancer, SF-268, 72 hours
Procedure: as §1, §2

CAKI-1 = assay: In vitro anti-proliferation assay (ATPlite), CAKI-1; type: cell-based; settings: for IC50: Homo sapiens, Renal Cancer, CAKI-1, 72 hours
Procedure: as §1, §2

SF-539 = assay: In vitro anti-proliferation assay (ATPlite), SF-539; type: cell-based; settings: for IC50: Homo sapiens, CNS Cancer, SF-539, 72 hours
Procedure: as §1, §2

OVCAR-8 = assay: In vitro anti-proliferation assay (ATPlite), OVCAR-8; type: cell-based; settings: for IC50: Homo sapiens, Ovarian Cancer, OVCAR-8, 72 hours
Procedure: as §1, §2

NCI/ADR-RES = assay: In vitro anti-proliferation assay (ATPlite), NCI/ADR-RES; type: cell-based; settings: for IC50: Homo sapiens, Ovarian Cancer, NCI/ADR-RES, 72 hours
Procedure: as §1, §2

[2] = Solubility (comparison in words); type: physicochemical
[3] = In vitro activities (comparison in words, test not specified)

HDAC-1, sequence (Q13547 whole entry): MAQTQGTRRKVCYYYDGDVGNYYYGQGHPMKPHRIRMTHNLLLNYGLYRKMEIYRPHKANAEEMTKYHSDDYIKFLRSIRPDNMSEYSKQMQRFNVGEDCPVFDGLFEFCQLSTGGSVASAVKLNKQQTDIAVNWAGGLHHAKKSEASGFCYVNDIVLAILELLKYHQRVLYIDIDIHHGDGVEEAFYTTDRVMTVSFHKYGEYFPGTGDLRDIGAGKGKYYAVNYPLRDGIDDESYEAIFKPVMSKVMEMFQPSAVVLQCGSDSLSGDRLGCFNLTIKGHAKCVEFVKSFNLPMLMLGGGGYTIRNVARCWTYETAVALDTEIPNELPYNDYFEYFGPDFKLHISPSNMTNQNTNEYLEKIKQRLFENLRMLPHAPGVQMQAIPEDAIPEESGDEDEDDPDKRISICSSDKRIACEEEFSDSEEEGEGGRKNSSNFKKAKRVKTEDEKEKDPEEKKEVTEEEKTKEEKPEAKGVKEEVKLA

Row | SMILES | IC50 (U251) [µM] | IC50 (SK-MEL-5) [µM] | IC50 (SNB-75) [µM] | IC50 (T-47D) [µM] | IC50 (MCF7) [µM] | IC50 (NCI-H226) [µM] | IC50 (BT-549) [µM] | IC50 (RXF 393) [µM] | IC50 (SNB-19) [µM] | IC50 (LOX IMVI) [µM] | IC50 (CCRF-CEM) [µM] | IC50 (SF-268) [µM] | IC50 (CAKI-1) [µM] | IC50 (SF-539) [µM] | IC50 (OVCAR-8) [µM] | IC50 (NCI/ADR-RES) [µM] | further results
1 | CCc1c2c(nc3ccc(OCCCCCCC(=O)NO)cc13)-c1cc3c(c(=O)n1C2)COC(=O)[C@]3(O)CC [CY-700] | 0.7 | 1.3 | 2.3 | 2.1 | 0.5 | 1.2 | 2.6 | 2.3 | 1.1 | 0.7 | 0.4 | 0.5 | 0.7 | 0.6 | 2.7 | 5.1 | Ratio (U251; Irinotecan IC50 / CY-700 IC50, U251): 5.5; Ratio (SK-MEL-5; Irinotecan IC50 / CY-700 IC50, SK-MEL-5): 8.6; Ratio (SNB-75; Irinotecan IC50 / CY-700 IC50, SNB-75): 6.9; Ratio (T-47D; Irinotecan IC50 / CY-700 IC50, T-47D): 11.7; Ratio (MCF7; Irinotecan IC50 / CY-700 IC50, MCF7): 12.1; Ratio (NCI-H226; Irinotecan IC50 / CY-700 IC50, NCI-H226): 7.2; number of cancer cell lines with better in vitro potency than Irinotecan [1]: 47; Ratio (BT-549; Irinotecan IC50 / CY-700 IC50, BT-549): 7.0; Ratio (RXF 393; Irinotecan IC50 / CY-700 IC50, RXF 393): 14.7; Ratio (SNB-19; Irinotecan IC50 / CY-700 IC50, SNB-19): 22.0; Ratio (LOX IMVI; Irinotecan IC50 / CY-700 IC50, LOX IMVI): 5.2; IC50 (HDAC-1; Fluor-de-Lys substrate, approximate IC50): 0.019 µM; Ratio (CCRF-CEM; Irinotecan IC50 / CY-700 IC50, CCRF-CEM): 9.7; Ratio (SF-268; Irinotecan IC50 / CY-700 IC50, SF-268): 7.4; Ratio (CAKI-1; Irinotecan IC50 / CY-700 IC50, CAKI-1): 15.3; Ratio (SF-539; Irinotecan IC50 / CY-700 IC50, SF-539): 8.9; Ratio (OVCAR-8; Irinotecan IC50 / CY-700 IC50, OVCAR-8): 6.4; Ratio (NCI/ADR-RES; Irinotecan IC50 / CY-700 IC50, NCI/ADR-RES): 8.2
2 | CC[C@@]1(O)C(=O)OCc2c1cc1n(c2=O)Cc2cc3c(CN(C)C)c(OC(=O)N4CCN(c5ncc(C(=O)NO)cn5)CC4)ccc3nc2-1 [CY-705] |  |  |  |  |  |  |  |  |  |  |  |  |  |  |  |  | solubility as compared to CY-700 [2]: significantly better solubility; in vitro activities as compared to CY-700 [3]: comparable in vitro activities
3 | CCc1c2c(nc3ccc(OC(=O)N4CCC(N5CCCCC5)CC4)cc13)-c1cc3c(c(=O)n1C2)COC(=O)[C@]3(O)CC [Irinotecan, reference compound] | 4.1 | 11.4 | 15.9 | 24.4 | 6.1 | 8.5 | 18.5 | 33.6 | 24.1 | 3.5 | 3.5 | 3.9 | 10.1 | 5 | 17.2 | 42.2 | HDAC-1 IC50 (result in words) (HDAC-1; unit not given): No activity
